Laboratory results as given in paper PMC3039689, “Identification of Small Molecule Lead Compounds for Visceral Leishmaniasis Using a Novel Ex Vivo Splenic Explant Model System” (PLoS Neglected Tropical Diseases, 2011).
Where a name gives a salt, the structure may show the parent alone. Read-outs that look alike come from different tables or passages of the source.

Experiments:
[1] = test system: luciferase-transfected Leishmania donovani; assay: Anti-leishmanial efficacy (EC50) in the ex vivo splenic explant model; assay type: cell-based
Procedure: To establish the plate assay for drug screening, the spleens from 2 infected hamsters were aseptically removed and placed in a Petri dish containing 5 mL of Collagenase D (Roche) at 2 mg/mL of buffer (10 mM Hepes pH 7.4, 150 mM NaCl, 5 mM KCl, 1 mM MgCl2, 1.8 mM CaCl2). The spleen was infiltrated by injection with approximately 2 mL of Collagenase solution, the tissue was cut into small pieces using sharp scissors, and incubated for 20 minutes at 37°C. The cell suspension and remaining tissue fragments were gently passed through a 100 µm cell strainer (B–D) to obtain a single cell suspension, which was washed twice by centrifugation (500 g for 7 min at 4°C) and re-suspended in culture medium composed of DMEM (Gibco), 5% FBS, 1 mM Sodium pyruvate (Gibco), 1X MEM amino acids solution (Sigma), 0.02% v/v/EDTA, 10 mM HEPES buffer (Cellgro) and 100 IU/mL Penicillin/100 […] Streptomycin solution (Cellgro).
The anti-leishmanial efficacy of the compounds was determined using the splenic explant model in a 96-well plate format. […] Because variation in the parasite burden between different explant cultures was expected, the concentration of cells used in each experiment was adjusted to give approximately 100 counts by luminometry (equivalent to ∼240,000 parasites). The number of surviving parasites was determined by luminometry as described above.

[2] = Cell toxicity (CC50) in the HepG2 cell line, CellTiter-Glo; assay type: cell-based, human; conditions: human
Procedure: After 24 hours of culture at 37°C the number of viable cells was determined by quantification of the ATP present in the cell using the CellTiter-Glo luminescent Cell Viability Assay (Promega).

[3] = Leishmania donovani, 48 h, ex vivo splenic explant, 48 h, luminometry, at least two experiments, compound from screened library, read-out: Ex vivo model EC50 Mean
[4] = HepG2 cells, HepG2 cell line, 24 h, ATP luminescence, compound from screened library, read-out: HepG2 CC50 Mean
[5] = Leishmania donovani, ex vivo splenic explant, 48 h, luminometry, at least two experiments, compound from screened library, read-out: Ex vivo model EC50 Mean
[6] = HepG2 cell line, 24 h, ATP luminescence, compound from screened library, read-out: HepG2 CC50 Mean
[7] = Leishmania donovani, 50% reduction in parasite counts in the ex vivo model, read-out: EC50 Mean (Table S2)
[8] = 50% reduction in parasite counts in the ex vivo model, read-out: EC50 Mean (Table S2)

Row | Compound | EC50 [1, 3] | CC50 at 24 h [2, 4] | EC50 [1, 5] | further results
1 | CC(C)(C)NCCC(O)c1cc(C(F)(F)F)nc2c(C(F)(F)F)cccc12 (stereo not shown) [1-(2,8-bis(trifluoromethyl)-4-quinolinyl)-3-(tert-butylamino)-1-propanol] | 7.9 µM | 44.2 µM | – | –
2 | CCN(CC)CCN1C(=O)c2cccc3cc(N)cc(c23)C1=O [1H-Benz[de]isoquinoline-1,3(2H)-dione, 5-amino-2-[2-(diethylamino)ethyl]-] | – | – | 8.4 µM | CC50 [2, 6]: 69.3 µM
3 | COc1cc(O)c(C(=O)/C=C/c2ccc(O)c(OC)c2)c(OC)c1 [2',4-dihydroxy-3,4',6'-trimethoxychalcone] | 14.6 µM | 106 µM | – | –
4 | CN(C)CCCNc1cc(O)c2c(c1O)C(=O)c1ccccc1C2=O [2-((3-(dimethylamino)propyl)amino)-1,4-dihydroxyanthra-9,10-quinone] | – | – | 6.7 µM | CC50 [2, 6]: 75.1 µM
5 | CSc1ccc2c(c1)c(CCN)c(C)n2Cc1ccccc1Cl [2-[1-[(2-chlorophenyl)methyl]-2-methyl-5-methylsulfanyl-indol-3-yl]ethanamine] | – | – | 9.4 µM | CC50 [2, 6]: 71.8 µM
6 | CN(C)CCCN1CCC2(CCC(C(C)(C)C)CC2)CC1 [3-(9-tert-butyl-3-azaspiro[5.5]undec-3-yl)-N,N-dimethyl-1-propanamine] | 6.1 µM | 61.8 µM | – | –
7 | CN(C)CCCN1c2ccccc2Sc2ccc3ccccc3c21 [3-(12H-benzo[a]phenothiazin-12-yl)-N,N-dimethyl-1-propanamine] | – | – | 11.5 µM | CC50 [2, 6]: 66.6 µM
8 | CCC1=C(CC2NCCc3ccccc32)CC2c3cc(OC)c(OC)cc3CCN2C1 (stereo not shown) [3-ethyl-9,10-dimethoxy-2-(1,2,3,4-tetrahydro-isoquinolin-1-ylmethyl)-1,6,7,11b-tetrahydro-4H-pyrido(2,1-a)isoquinoline] | – | – | 2.7 µM | CC50 [2, 6]: 24 µM
9 | Cc1cc(N2CCCCC2)nc2ccc(Cc3ccc4nc(N5CCCCC5)cc(C)c4c3)cc12 [4-methyl-6-((4-methyl-2-(1-piperidinyl)-6-quinolinyl)methyl)-2-(1-piperidinyl)quinoline] | – | – | 18.4 µM | CC50 at 24 h [2]: 109 µM
10 | OC1(c2ccccc2)c2ccccc2NC2=NCCN21 (stereo not shown) [5-phenyl-3,10-dihydro-2H-imidazo[2,1-b]quinazolin-5-ol] | 12 µM | 107 µM | – | –
11 | COc1ccc(-c2cc(=O)c3cc(OC)ccc3o2)cc1 [6,4'-dimethoxyflavone] | 17.9 µM | 95 µM | – | –
12 | COc1cc(NCCC2CCCCN2)c2ncccc2c1 (stereo not shown) [6-methoxy-N-(2-(2-piperidinyl)ethyl)-8-quinolinamine] | – | – | 5.1 µM | CC50 at 24 h [2]: 108 µM
13 | CN(C)CCCN1c2ccc(O)cc2Sc2ccc(Cl)cc21 [7-Hydroxychlorpromazine] | – | – | 11 µM | CC50 [2, 6]: 60.1 µM
14 | Clc1ccc2c(NC3CCC(N4CCCCC4)CC3)ccnc2c1 (stereo not shown) [7-chloro-N-(4-(1-piperidinyl)cyclohexyl)-4-quinolinamine] | 6.3 µM | 67.4 µM | – | –
15 | CN(C)CC1CCC2=C(C1=O)C(c1ccc(Cl)c(Cl)c1)C1=C(CCC(CN(C)C)C1=O)O2 (stereo not shown) [9-(3,4-Dichlorophenyl)-2,7-bis(dimethylaminomethyl)-3,4,5,6,7,9-hexahydro-2H-xanthene-1,8-dione] | 9.4 µM | 49.8 µM | – | –
16 | CC(NCCN(C)C)C1CC[C@H]2[C@@H]3CCc4cc(O)ccc4[C@H]3CC[C@]12C (stereo partly shown) [17-(1-((2-(dimethylamino)ethyl)amino)ethyl)estra-1,3,5(10)-trien-3-ol] | 6.2 µM | – | – | CC50 at 24 h [2]: 51.6 µM
17 | C[C@]12CC[C@H]3[C@@H](CC=C4C[C@@H](O)CC[C@@]43C)[C@@H]1CC[C@@H]2N(CCO)CCO [17beta-[Bis(2-hydroxyethyl)amino]androst-5-en-3beta-ol] | 7.5 µM | 88.5 µM | – | –
18 | CC[C@@]1(O)C[C@H](O[C@H]2C[C@H](N(C)C)[C@H](O)[C@H](C)O2)c2c(cc3c(c2O)C(=O)c2c(O)cccc2C3=O)[C@H]1C(=O)OC [Aklavine Hydrochloride] | – | – | 0.7 µM | CC50 [2, 6]: 14 µM
19 | COc1ccc2cc1Oc1ccc(cc1)C[C@H]1c3c(cc4c(c3Oc3cc5c(cc3OC)CCN(C)[C@@H]5C2)OCO4)CCN1C [Cepharanthine] | 11.4 µM | – | – | CC50 at 24 h [2]: 86.3 µM
20 | CCCCCCCCCCCCCCCC[N+](C)(C)C [Cetrimonium Bromide] | – | – | 6.1 µM | CC50 [2, 6]: 42.9 µM
21 | [H]/N=C(\N/C(=N/[H])NCCCCCCNC(=N)NC(=N)Nc1ccc(Cl)cc1)Nc1ccc(Cl)cc1 [Chlorhexidine] | – | 60.5 µM | 10.3 µM | –

Row | Compound | EC50 [1, 3] | CC50 at 24 h [2, 4] | EC50 [1, 5] | further results
22 | Cc1cc(O)ccc1Cl [Chlorocresol] | – | 138 µM | 8 µM | EC50 [1, 7]: 8.02 µM
23 | CN(C)CCCN1c2ccccc2Sc2ccc(Cl)cc21 [Chlorpromazine] | – | – | – | EC50 [1, 7]: 15.1 µM; CC50 at 24 h [2]: 96.1 µM
24 | Oc1c(I)cc(Cl)c2cccnc12 [Clioquinol] | – | 60 µM | 11.3 µM | –
25 | Oc1ccc(Cl)c2cccnc12 [Cloxyquin] | – | 94.8 µM | – | –
26 | C=C1C(=O)O[C@H]2C[C@@H]1C(OC(C)=O)C/C(C)=C/CC/C(C)=C/CC[C@@]2(C)O (stereo partly shown) [Crassin Acetate] | 7.7 µM | 41.1 µM | – | –
27 | C=C1C(=O)O[C@H]2C[C@@H]1[C@@H](OC(C)=O)C/C(C)=C/CC/C(C)=C\CC[C@@]2(C)O [Crassin] | 8.9 µM | 51.6 µM | – | –
28 | C[C@@H]1CC[C@@]2(OC1)O[C@H]1[C@@H](O)[C@H]3[C@@H]4CC[C@H]5C[C@@H](O[C@@H]6O[C@H](CO)[C@H](O[C@@H]7O[C@H](CO)[C@@H](O)[C@H](O[C@@H]8OC[C@@H](O)[C@H](O)[C@H]8O)[C@H]7O[C@@H]7O[C@H](CO)[C@H](O)[C@H](O[C@@H]8O[C@H](CO)[C@@H](O)[C@H](O)[C@H]8O)[C@H]7O)[C@H](O)[C@H]6O)[C@H](O)C[C@]5(C)[C@H]4CC[C@]3(C)[C@H]1[C@@H]2C [Digitonin] | 8.2 µM | – | – | CC50 [2, 6]: 42.4 µM
29 | Cc1c2ccncc2c(C)c2c1[nH]c1ccccc12 [Ellipticine] | 2.4 µM | – | – | CC50 [2]: 30.7 µM
30 | Cc1nccc2c1[nH]c1cc(O)ccc12 [Harmol Hydrochloride] | – | – | 11.2 µM | CC50 [2, 6]: 60.2 µM
31 | Oc1c(Cl)cc(Cl)c(Cl)c1Cc1c(O)c(Cl)cc(Cl)c1Cl [Hexachlorophene] | – | – | – | EC50 ([1]; Leishmania donovani, 48 h, read-out: Ex vivo model EC50 Mean): 13.6 µM
32 | CC[n+]1c(-c2ccccc2)c2cc(N)ccc2c2ccc(N)cc21 [Homidium Bromide] | – | – | 11.9 µM | EC50 [1, 7]: 11.9 µM; CC50 [2, 6]: 58.8 µM
33 | CNCCCC12CCC(c3ccccc31)c1ccccc12 [Maprotiline Hydrochloride] | – | – | – | CC50 at 24 h [2]: 57.9 µM
34 | Clc1ccc2c(NCCNC3CCCCC3)ccnc2c1 [N1-(7-chloro-4-quinolinyl)-N2-cyclohexyl-1,2-ethanediamine] | 3.9 µM | 46.2 µM | – | –
35 | CC(C)=CCNc1ncnc2nc[nH]c12 [N6-Isopentenyladenine] | – | – | 20 µM | CC50 [2]: 225 µM
36 | CN(C)CCCNc1c2c(nc3ccc(Cl)cc13)CCCC2 [N-(7-chloro-1,2,3,4-tetrahydroacridin-9-yl)-N',N'-dimethyl-propane-1,3-diamine] | – | – | 6.4 µM | CC50 [2, 6]: 58.8 µM
37 | COc1cc2ccccc2c2cc([N+](=O)[O-])oc12 [Naphtho(2,1-b)furan, 4-methoxy-2-nitro-] | 6.8 µM | – | – | CC50 at 24 h [2]: 64.3 µM
38 | CC[C@@H](C(=O)O)[C@@H]1O[C@@H]([C@@H](C)[C@H](O)[C@H](C)C(=O)[C@H](CC)[C@H]2O[C@]3(C=C[C@@H](O)[C@]4(CC[C@@](C)([C@H]5CC[C@](O)(CC)[C@H](C)O5)O4)O3)[C@H](C)C[C@@H]2C)[C@@H](C)C[C@@H]1C [Narasin] | 13.3 µM | – | – | EC50 [1, 7]: 13.3 µM; CC50 at 24 h [2]: 73 µM
39 | CN[C@H]1CC[C@@H](c2ccc(Cl)c(Cl)c2)c2ccccc21 [Sertraline Hydrochloride] | – | – | – | CC50 at 24 h [2]: 82.5 µM
40 | C[C@@H]1[C@H](O)[C@@H](C)/C=C/C=C/C=C/C=C/C=C/C=C/C=C/[C@H](O[C@@H]2O[C@H](C)[C@@H](O)[C@H](N)[C@@H]2O)C[C@@H]2O[C@](O)(C[C@@H](O)C[C@@H](O)[C@H](O)CC[C@@H](O)C[C@@H](O)CC(=O)O[C@H]1C)C[C@H](O)[C@H]2C(=O)O [amphotericin B deoxycholate] | – | – | – | EC50 ([1]; Leishmania donovani, ex vivo model, freshly solubilized compound from commercial source, read-out: EC50): 0.24 ± 0.02 µM
41 | Monensin Sodium | – | – | – | EC50 [1, 8]: 2.44 µM; EC50 ([1]; ex vivo splenic explant, 48 h, luminometry, at least two experiments, compound from screened library, read-out: Ex vivo model EC50 Mean): 2.4 µM
42 | Neomycin sulfate | – | – | – | EC50 [1, 8]: 6.72 µM; Activity in the ex vivo system (screen or EC50 determination) ([1]; transgenic L. donovani, ex vivo system): identified as a compound with activity
